From patent US10316017B2, “COT modulators and methods of use thereof” (Gilead Sciences, Inc., priority 2015, dated 2019)

How the values were obtained:
[1] = test system: TNFα production in LPS-stimulated human monocytes; test: Cot Monocyte TNFα Cell Based Assay; details: Homo sapiens, Monocyte, TNFα in LPS-stimulated human monocytes; read-out: EC50 TNF
Outline: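 Cells at 5,000/well were pretreated with compound for 1 h at 37 °C (0.5% DMSO final), then stimulated with 50 pg/ml LPS for 4 h at 37 °C. Supernatant TNFα was measured by two-antibody TR-FRET after overnight room-temperature incubation; values are percent of control between unstimulated and stimulated wells.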

[2] = target: T1, human Cot catalytic domain (30-397 amino acids) (Homo sapiens, UniProt P41279); test: High Throughput Cot Biochemical Assay (KinEASE TR-FRET); details: Cot biochemical HTRF (KinEASE TR-FRET) assay; read-out: IC50 HTRF
T1 construct: Purified recombinant human Cot catalytic domain (30-397 amino acids) was purchased from Cama Biosciences; purchased Cama Biosciences (so in the source)
T1 sequence (P41279 30-397): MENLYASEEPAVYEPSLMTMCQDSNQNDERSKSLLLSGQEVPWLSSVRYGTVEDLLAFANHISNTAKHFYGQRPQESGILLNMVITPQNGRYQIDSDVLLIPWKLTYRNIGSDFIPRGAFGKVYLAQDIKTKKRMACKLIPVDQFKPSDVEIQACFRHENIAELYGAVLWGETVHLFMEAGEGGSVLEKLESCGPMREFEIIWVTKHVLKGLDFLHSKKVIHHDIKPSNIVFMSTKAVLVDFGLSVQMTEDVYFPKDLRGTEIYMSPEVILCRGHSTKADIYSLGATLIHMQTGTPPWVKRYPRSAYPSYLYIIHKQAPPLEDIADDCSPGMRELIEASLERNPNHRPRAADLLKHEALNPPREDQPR
Outline: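 Reaction of 5 nM recombinant human Cot catalytic domain (aa 30-397) with 1 μM STK3 peptide (XL665-labeled) and 400 μM ATP in 10 mM MOPS pH 7.0, 10 mM MgOAc, 1 mM DTT, 0.5 mg/mL BSA, 0.1% DMSO. Phosphopeptide detected by TR-FRET with europium anti-phospho antibody.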

| Compound | EC50 [1] [nM] | IC50 [2] [nM] |
| --- | --- | --- |
| CC[C@@H](Nc1c(C#N)cnc2c(Cl)cc(N[C@H](c3c[nH]nn3)c3cccc(F)c3F)cc12)c1ccccc1 [Example 445, 8-chloro-6-(((S)-(2,3-difluorophenyl)(1H-1,2,3-triazol-4-yl)methyl)amino)-4-(((R)-1-phenylpropyl)amino) quinoline-3-carbonitrile] | 1270 | 46 |
| CC[C@@H](Nc1c(C#N)cnc2c(Cl)cc(N[C@H](c3cn(CCF)nn3)c3ccccc3F)cc12)c1ccccc1 [Example 446, 8-chloro-6-(((S)-(1-(2-fluoroethyl)-1H-1,2,3-triazol-4-yl)(2-fluorophenyl)methyl)amino)-4-(((R)-1-phenylpropyl)amino) quinoline-3-carbonitrile] | 338 | 11 |
| N#Cc1cnc2c(Cl)cc(N[C@H](c3c[nH]nn3)c3ccccc3F)cc2c1Nc1cnc(F)c(F)c1 [Example 447, (S)-8-chloro-4-((5,6-difluoropyridin-3-yl)amino)-6-(((2-fluorophenyl) (1H-1,2,3-triazol-4-yl)methyl)amino)quinoline-3-carbonitrile] | 1930 | 23 |
| N#Cc1cnc2c(Cl)cc(N[C@H](c3c[nH]nn3)c3cccc(F)c3F)cc2c1Nc1cnc(F)c(F)c1 [Example 448, (S)-8-chloro-6-(((2,3-difluorophenyl)(1H-1,2,3-triazol-4-yl)methyl)amino)-4-((5,6-difluoropyridin-3-yl)amino)quinoline-3-carbonitrile] | 1860 | 26 |
| N#Cc1cnc2c(Cl)cc(N[C@@H](c3ccc(F)cc3)c3c[nH]nn3)cc2c1Nc1ccc(Cl)c(Cl)c1F [Example 449, (S)-8-chloro-4-((3,4-dichloro-2-fluorophenyl)amino)-6-(((4-fluorophenyl)(1H-1,2,3-triazol-4-yl)methyl)amino)quinoline-3-carbonitrile] | 830 | 161 |
| N#Cc1cnc2c(Cl)cc(N[C@@H](c3cccc(-c4ncco4)c3)c3cn(C4CC4)nn3)cc2c1Nc1cnc(F)c(F)c1 [Example 450, (S)-8-chloro-6-(((1-cyclopropyl-1H-1,2,3-triazol-4-yl)(3-(oxazol-2-yl)phenyl)methyl)amino)-4-((5,6-difluoropyridin-3-yl)amino)quinoline-3-carbonitrile] | 305 | 3 |
| COC(C)(C)CNc1c(C#N)cnc2c(Cl)cc(N[C@@H](c3ccccc3)c3cn(C4CCN(C(C)(C)C)CC4)nn3)cc12 [Example 451] | 266 | 68 |
| CC1(CNc2c(C#N)cnc3c(Cl)cc(N[C@@H](c4ccccc4)c4cn(C5CCN(C(C)(C)C)CC5)nn4)cc23)COC1 [Example 452, (S)-6-(((1-(1-(tert-butyl)piperidin-4-yl)-1H-1,2,3-triazol-4-yl)(phenyl)methyl)amino)-8-chloro-4-(((3-methyloxetan-3-yl)methyl)amino)quinoline-3-carbonitrile] | 420 | 98 |
| CC1(CNc2c(C#N)cnc3c(Cl)cc(N[C@@H](c4ccccc4)c4cn(C5CCN(C(C)(C)C)CC5)nn4)cc23)CCC1 [Example 453, (S)-6-(((1-(1-(tert-butyl)piperidin-4-yl)-1H-1,2,3-triazol-4-yl)(phenyl)methyl)amino)-8-chloro-4-(((1-methylcyclobutyl)methyl)amino)quinoline-3-carbonitrile] | 231 | 11 |
| CC(C)(C)N1CCC(n2cc([C@@H](Nc3cc(Cl)c4ncc(C#N)c(NCC5CCC5)c4c3)c3ccccc3)nn2)CC1 [Example 454, (S)-6-(((1-(1-(tert-butyl)piperidin-4-yl)-1H-1,2,3-triazol-4-yl)(phenyl)methyl)amino)-8-chloro-4-((cyclobutylmethyl)amino) quinoline-3-carbonitrile] | 1770 | 49 |
| CC1(CNc2c(C#N)cnc3c(Cl)cc(N[C@@H](c4ccccc4)c4cn(C5CCN(C(C)(C)C)CC5)nn4)cc23)CC1 [Example 455, (S)-6-(((1-(1-(tert-butyl)piperidin-4-yl)-1H-1,2,3-triazol-4-yl)(phenyl)methyl)amino)-8-chloro-4-(((1-methylcyclopropyl)methyl)amino)quinoline-3-carbonitrile] | 171 | 48 |
| N#Cc1cnc2c(Cl)cc(N[C@@H](c3ccc(F)cc3)c3cn(C4CC4)nn3)cc2c1Nc1cnc(F)c(F)c1 [Example 456, (S)-8-chloro-6-(((1-cyclopropyl-1H-1,2,3-triazol-4-yl)(4-fluorophenyl)methyl)amino)-4-((5,6-difluoropyridin-3-yl)amino)quinoline-3-carbonitrile] | 305 | 7 |

Other lines, results leading:

| EC50 [1] [nM] | IC50 [2] [nM] | Compound |
| --- | --- | --- |
| 616 | 43 | CC(C)(C)n1cc([C@@H](Nc2cc(Cl)c3ncc(C#N)c(Nc4cnc(F)c(F)c4)c3c2)c2ccc(F)cc2)nn1 [Example 457, (S)-6-(((1-(tert-butyl)-1H-1,2,3-triazol-4-yl)(4-fluorophenyl)methyl)amino)-8-chloro-4-((5,6-difluoropyridin-3-yl)amino)quinoline-3-carbonitrile] |
| 598 | 17 | CC(C)n1cc([C@@H](Nc2cc(Cl)c3ncc(C#N)c(Nc4cnc(F)c(F)c4)c3c2)c2ccc(F)cc2)nn1 [Example 458, (S)-8-chloro-4-((5,6-difluoropyridin-3-yl)amino)-6-(((4-fluorophenyl)(1-isopropyl-1H-1,2,3-triazol-4-yl)methyl)amino)quinoline-3-carbonitrile] |
| 454 | 9 | N#Cc1cnc2c(Cl)cc(N[C@@H](c3ccc(F)cc3)c3cn(CCCN4CCCC4)nn3)cc2c1Nc1cnc(F)c(F)c1 [Example 459] |
| 1260 | 23 | N#Cc1cnc2c(Cl)cc(N[C@H](c3c[nH]nn3)c3ccc(F)cc3F)cc2c1Nc1cnc(F)c(F)c1 [Example 460, (S)-8-chloro-6-(((2,4-difluorophenyl)(1H-1,2,3-triazol-4-yl)methyl)amino)-4-((5,6-difluoropyridin-3-yl)amino)quinoline-3-carbonitrile] |
| 1530 | 20 | [2H][C@](Nc1cc(Cl)c2ncc(C#N)c(Nc3cnc(F)c(F)c3)c2c1)(c1ccccc1)c1c[nH]nn1 [Example 461, (S)-8-chloro-4-((5,6-difluoropyridin-3-yl)amino)-6-((phenyl(1H-1,2,3-triazol-4-yl)methyl-d)amino)quinoline-3-carbonitrile] |
| 787 | 17 | CS(=O)(=O)c1cccc([C@H](Nc2cc(Cl)c3ncc(C#N)c(Nc4ccc(Cl)c(Cl)c4F)c3c2)c2c[nH]nn2)c1 [Example 462, (S)-8-chloro-4-((3,4-dichloro-2-fluorophenyl)amino)-6-(((3-(methylsulfonyl)phenyl) (1H-1,2,3-triazol-4-yl)methyl)amino)quinoline-3-carbonitrile] |
| 1410 | 144 | [2H][C@](Nc1cc(Cl)c2ncc(C#N)c(Nc3ccc(Cl)c(Cl)c3F)c2c1)(c1ccccc1)c1c[nH]nn1 [Example 463, (S)-8-chloro-4-((3,4-dichloro-2-fluorophenyl)amino)-6-((phenyl(1H-1,2,3-triazol-4-yl)methyl-d)amino)quinoline-3-carbonitrile] |
